Data: ChEMBL document CHEMBL1833875, “Synthesis and in vitro antiprotozoal activities of 5-phenyliminobenzo[a]phenoxazine derivatives” (Bioorg Med Chem Lett, 2011)

Legend:
[1] = Selectivity index, ratio of IC50 for rat L6 cells to IC50 for Leishmania donovani MHOM/ET/67/L82; type: toxicity, cell-based; details: read-out: Ratio IC50
L6 = experiment: Cytotoxicity against rat L6 cells; type: cell-based
[2] = Selectivity index, ratio of IC50 for rat L6 cells to IC50 for Plasmodium falciparum K1; type: toxicity, cell-based; details: read-out: Ratio IC50
[3] = tested on: Trypanosoma brucei rhodesiense; experiment: Antiprotozoal activity against Trypanosoma brucei rhodesiense STIB900 at pH 7.4 by microplate assay; type: functional, organism-based
[4] = Selectivity index, ratio of IC50 for rat L6 cells to IC50 for Trypanosoma brucei rhodesiense STIB900; type: toxicity, cell-based; details: read-out: Ratio IC50
Leishmania donovani = experiment: Antiprotozoal activity against Leishmania donovani MHOM/ET/67/L82 at pH 7.4 by microplate assay; type: functional, organism-based
Plasmodium falciparum = experiment: Antimalarial activity against Plasmodium falciparum K1 at pH 7.4 by microplate assay; type: functional, organism-based
[5] = Selectivity index, ratio of IC50 for rat L6 cells to IC50 for Trypanosoma cruzi Tulahuen C4; type: toxicity, cell-based; details: read-out: Ratio IC50
Trypanosoma cruzi = experiment: Antiprotozoal activity against Trypanosoma cruzi Tulahuen C4 at pH 7.4 by microplate assay; type: functional, organism-based

Row | SMILES | IC50 [3] [µM] | IC50 (Leishmania donovani) [µM] | IC50 (Plasmodium falciparum) [µM] | IC50 (Trypanosoma cruzi) [µM] | selectivity ratio [1] | IC50 (L6) [µM] | selectivity ratio [2] | selectivity ratio [4] | selectivity ratio [5]
1 | CCN(CC)c1ccc2nc3c4ccccc4/c(=N\c4ccccc4)cc-3oc2c1 | 88.5 | 20.1 | 0.208 | > 229 | 8.94 | 180 | 863 | 2.03 | < 0.79
2 | CCN(CC)c1ccc2nc3c4ccccc4/c(=N\c4ccc(C)cc4)cc-3oc2c1 | 36.2 | 10.7 | 0.253 | 20.9 | 12.5 | 134 | 531 | 3.71 | 6.42
3 | CCN(CC)c1ccc2nc3c4ccccc4/c(=N\c4ccc(OC)cc4)cc-3oc2c1 | 14.9 | 5.2 | 0.04 | 20.3 | 10.9 | 57.2 | 1420 | 3.84 | 2.82
4 | CCN(CC)c1ccc2nc3c4ccccc4/c(=N\c4ccccc4Cl)cc-3oc2c1 | 85.4 | 23.3 | 0.215 | 78.8 | 2.41 | 56.2 | 261 | 0.66 | 0.71
5 | CCN(CC)c1ccc2nc3c4ccccc4/c(=N\c4ccc([N+](=O)[O-])cc4Cl)cc-3oc2c1 | 184 | 70.5 | 1.93 | 10.9 | 0.21 | 14.6 | 8 | 0.08 | 1.34

More lines, in order of falling IC50 (Trypanosoma cruzi), values ahead:

Row | IC50 [3] [µM] | IC50 (Leishmania donovani) [µM] | IC50 (Plasmodium falciparum) [µM] | IC50 (Trypanosoma cruzi) [µM] | SMILES | selectivity ratio [1] | IC50 (L6) [µM] | selectivity ratio [2] | selectivity ratio [4] | selectivity ratio [5]
6 | 147 | 90.6 | 0.205 | 144 | CCN(CC)c1ccc2nc3c4ccccc4/c(=N\c4ccc([N+](=O)[O-])cc4C#N)cc-3oc2c1 | 0.68 | 61.8 | 302 | 0.42 | 0.43
7 | 11.3 | 2.9 | 0.045 | 143 | CCN(CC)c1ccc2nc3c4ccccc4/c(=N\c4cccc(OC)c4)cc-3oc2c1 | 13.9 | 39.6 | 883 | 3.52 | 0.28
8 | 129 | 28.6 | 0.209 | 76.7 | CCN(CC)c1ccc2nc3c4ccccc4/c(=N\c4cccc(Cl)c4)cc-3oc2c1 | 4.5 | 129 | 617 | 1 | 1.68
9 | 198 | > 205 | 0.135 | 56.9 | CCN(CC)c1ccc2nc3c4ccccc4/c(=N\c4ccc([N+](=O)[O-])cc4)cc-3oc2c1 | < 0.25 | 51.9 | 386 | 0.26 | 0.91
10 | – | – | – | 0.886 | O=C(Cn1ccnc1[N+](=O)[O-])NCc1ccccc1 [BENZNIDAZOLE] | – | – | – | – | –
